PubChem BioAssay (NCI)
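Dose response: 5 concentrations. Exposure: 48 h. Format: 96-well plates. Endpoint: linear interpolation; highest concentration if not reached. TGI is the concentration that stops growth completely.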

Legend:
Assay in all cases: NCI-60 cell line screen, 48 h
IGROV1 ovarian = tested on: IGROV1 ovarian
SK-MEL-2 melanoma = tested on: SK-MEL-2 melanoma
HL-60(TB) leukemia = tested on: HL-60(TB) leukemia
SW-620 colon = tested on: SW-620 colon
SK-MEL-28 melanoma = tested on: SK-MEL-28 melanoma
MDA-MB-435 = tested on: MDA-MB-435
SF-539 CNS = tested on: SF-539 CNS
HS 578T breast = tested on: HS 578T breast
HCC-2998 colon = tested on: HCC-2998 colon
HOP-62 NSCLC = tested on: HOP-62 NSCLC
DU-145 prostate = tested on: DU-145 prostate
T-47D breast = tested on: T-47D breast
KM12 colon = tested on: KM12 colon
OVCAR-3 ovarian = tested on: OVCAR-3 ovarian
OVCAR-5 ovarian = tested on: OVCAR-5 ovarian
COLO 205 colon = tested on: COLO 205 colon
RPMI-8226 leukemia = tested on: RPMI-8226 leukemia
TK-10 renal = tested on: TK-10 renal
HT29 colon = tested on: HT29 colon
HOP-92 NSCLC = tested on: HOP-92 NSCLC
786-0 renal = tested on: 786-0 renal
ACHN renal = tested on: ACHN renal
OVCAR-4 ovarian = tested on: OVCAR-4 ovarian
EKVX NSCLC = tested on: EKVX NSCLC
NCI-H23 lung = tested on: NCI-H23 lung
NCI-H460 lung = tested on: NCI-H460 lung
SK-MEL-5 melanoma = tested on: SK-MEL-5 melanoma
A549 NSCLC = tested on: A549 NSCLC
RXF 393 renal = tested on: RXF 393 renal
NCI-H522 lung = tested on: NCI-H522 lung
SK-OV-3 ovarian = tested on: SK-OV-3 ovarian
M14 melanoma = tested on: M14 melanoma
SNB-75 CNS = tested on: SNB-75 CNS
SF-295 CNS = tested on: SF-295 CNS
MALME-3M melanoma = tested on: MALME-3M melanoma
BT-549 breast = tested on: BT-549 breast
SR leukemia = tested on: SR leukemia
U251 CNS = tested on: U251 CNS
HCT-15 colon = tested on: HCT-15 colon
PC-3 prostate = tested on: PC-3 prostate
HCT-116 colon = tested on: HCT-116 colon
K-562 leukemia = tested on: K-562 leukemia
CAKI-1 renal = tested on: CAKI-1 renal
SNB-19 CNS = tested on: SNB-19 CNS
MDA-MB-231 breast = tested on: MDA-MB-231 breast
UACC-62 melanoma = tested on: UACC-62 melanoma
MCF7 breast = tested on: MCF7 breast
UO-31 renal = tested on: UO-31 renal
NCI-H226 lung = tested on: NCI-H226 lung
NCI/ADR-RES ovarian = tested on: NCI/ADR-RES ovarian
MOLT-4 leukemia = tested on: MOLT-4 leukemia
A498 renal = tested on: A498 renal
SF-268 CNS = tested on: SF-268 CNS

Measured: TGI

NS(=O)(=O)c1nnc(NS(=O)(=O)c2ccccc2[N+](=O)[O-])s1
> 100 µM: all assays above
